# According to patent US20030228256A1, “Methods of achieving transplantation tolerance through radioablation of hemolymphopoietic cell populations” (priority 2002, published 2003):
# Where two headings read alike, the source gives them in different places.
# Experiments:
# [1] = test system: donor-specific (Balb/c) and third party (C3H) skin grafts
# Description: Full-thickness skin donor (Balb/c) and third party (C3H/HeJ) grafts were transplanted onto the lateral thoracic area of the recipients either the day following BMC-Tx, or 4 weeks following the last administration of MR-1 mAb, using techniques described previously. Briefly, square, full-thickness skin grafts (1 cm^2) were prepared from the tail skin of donors. Graft beds were prepared on the right (donor-specific) and left (third party) lateral thoracic wall of recipient mice. Grafts were fixed to the beds with 4 sutures of 5.0 silk at the corners of the graft and covered with a petroleum jelly-coated gauze and a plaster cast. The grafts were first inspected on the eighth-day following grafting, and every third day thereafter. Graft rejection was considered complete when no viable graft tissue was detected by visual inspection. Recipient mice were considered to be tolerant when donor-specific skin grafts survived in perfect condition for <150 days.
# Grafts were prepared 30 days following the last administration of anti-CD154 mAb in the treated animals. Two different donor strain combinations, BALB/c (H-2^d), and C3H/J (H-2^k) were used. Each recipient received skin grafts from both strains: donor-type, BALB/c (H-2^d), as well as third-party, C3H/J (H-2^k). […] Grafts were followed for a minimum of 128 days and were considered rejected when viable tissue was no longer detected at the transplant site.
# [2] = test system: white blood cell counts (WBC), hemolymphopoietic elements; assay: Blood counts (WBC, RBC, Hb, PLT) after single IV dose of 153Sm-EDTMP; type: in vivo, C57BL/6 mice; design: time at which myelodepression occurred: unit not given here
# Description: (§1) Bone marrow-derived Cell Transplantation. Balb/c mice, 8-9 weeks old, used as donors, were sacrificed on the day of the transplant. Bone marrow cells (BMC) were prepared according to a previously published regimen. Briefly, after removing femura and tibiae, and cleaning them from muscle tissue and cartilage, BMC were flushed with sterile RPMI-1640 (Mediatech, Inc, Herndon, Va.) supplemented with 0.8 mg/ml Gentamycin (Gibco, Gaithersburg, Md.), using 23G needle. BMC were filtered through a sterile nylon mesh and counted. Fully MCH-mismatched C57BL/6 recipients, 9-10 weeks of age, were injected intravenously with either 20×10^6 or 100×10^6 unmanipulated BMCs resuspended in 0.5 and 1.0 ml of HBSS Hank's Balanced Saline Solution) (Mediatech) respectively, on either day 7 or 14. Tolerance induction protocol consisted of either 150 or 500 μCi of ^153Sm-EDTMP (Berlex Laboratories Wayne, N.J.), I.V., on day—7, and 0.5 mg hamster anti-murine CD154 mAb (MR-1), purchased from Taconic (Germantown, N.Y.) administered intraperitoneally (I.P.) on days—1,0,7,14, 21 and 28.
# Recipient animals (C57BL/6, H-2^b) were treated with a single IV dose of ^153Sm-EDTMP, 150 μCi or 500 μCi, prior to administration of 20×10^6 or 100×10^6 allogenic donor bone marrow cells (BMC) (BALB/c, H-2^d), also administered as a single IV dose. BMC transplantation (BMC-Tx) was performed on day 7 or 14 following the administration of ^153Sm in the presence of transient T lymphocyte co-stimulatory blockade by MR-1 (hamster anti-murine CD154 mAb) on days—1, 0, 7, 14, 21 and 28, 0.5 mg IP. […] Similar data were obtained in animals treated with ^153Sm-EDTMP and not transplanted with allogeneic BMC (not shown). […] No dramatic alterations of RBC, PLT or Hb counts were evident.
# [3] = test system: donor-derived cells (BALB/c BMC) in recipients; assay: Hemolymphopoietic chimerism: percentage of donor-derived cells in recipient PBL by flow cytometry after allogeneic BMC-Tx; type: in vivo, C57BL/6 mice
# Description: as §1
# Immunohemotyping of chimeras. Engraftment of donor-derived BMCs was ascertained by flow cytometric analysis (FCM) of recipient peripheral blood mononuclear cells (PBMCs), splenocytes, thymocytes and bone marrow cells after staining with FITC-conjugated anti-mouse H-2K^b or H-2K^d and Cy-Chrome-conjugated CD3 monoclonal antibodies (mAbs) purchased from PharMingen (San Diego, Calif.) at multiple time points during the experiment as well as at sacrifice. Cells were also assessed for non-specific staining using an Ig isotype control (FITC-conjugated mouse IgG2a and Cy-Chrome-conjugated rat IgG2b), and the percentage of cells stained with this Ab was subtracted from the values obtained from staining with the specific Ab to determine the relative number of positive cells. Reconstitution of various cell lineages was assessed using FITC-conjugated anti-mouse H-2K^b or H-2K^d and PE-conjugated anti-mouse CD19/CD22 in the B cell, PE-conjugated anti-mouse Ly-6G in the granulocyte, and PE-conjugated anti-mouse Mac-3 in the macrophage compartments. Recipient animals were first tested 1 week after BMC-Tx, every 2 weeks up to 6 weeks, and every 4 weeks thereafter. Purified anti-mouse CD16/CD32 (FcγIII/II) was used to block non-specific binding to the Fc receptors. FCM analyses were preformed using CellQuest software on a FACScan cytometer purchased from Becton Dickinson & Co. (Mountain View, Calif.).
# Typing of PBL obtained from the recipient animals starting at 2 weeks following the reconstitution with donor-derived BM allogeneic cells, every two weeks up to 6 weeks post-reconstitution, and every 4 weeks afterwards was performed using anti Class I H-2^b-FITC and H-2^d-FITC. Analysis was performed on the lymphoid gate, and the values were normalized to 100%.
compound,measurement,setting,value
O=P([O-])(O)CN(CCN(CP(=O)([O-])O)CP(=O)(O)O)CP(=O)([O-])O.[153Sm+3] [^153Sm-EDTMP],third party (C3H/J) skin graft outcome,"[1]; 20×10^6 BMC, 153Sm-EDTMP and anti-CD154 mAb",rejected within the same time frame as were donor-specific grafts placed on naïve recipients
same,tolerance to donor-specific skin grafts,"[1]; 20×10^6 BMC, 153Sm-EDTMP and anti-CD154 mAb, FIG. 9",tolerance to donor-specific skin grafts is obtained
same,third party (C3H/J) skin graft outcome,"[1]; 100×10^6 BMC, 153Sm-EDTMP and anti-CD154 mAb",rejected within the same time frame as were donor-specific grafts placed on naïve recipients
same,enhancing effect of 153Sm administration on graft survival,"[1]; 100×10^6 BMC, anti-CD154 mAb, FIG. 10",lost
same,time donor-derived skin grafts were kept,"[1]; a large percent of animals, followed up to 31 weeks post bone marrow transplantation, with anti-CD154 mAb",> 150 days
same,reversibility of myelodepression of the WBC compartment,[2]; in the presence or absence of allogeneic BMC-Tx,spontaneously reversible
same,"effect on red blood cell (RBC), hemoglobin (Hb) and platelet (PLT) counts",[2]; single IV dose 150 or 500 μCi,does not have significant effect
same,time at which myelodepression occurred,[2]; single IV dose 150 or 500 μCi,one
same,time by which myelodepression spontaneously resolved,[2]; single IV dose 150 or 500 μCi,4-6 weeks post-administration
same,myelodepression (decreased white blood cell counts),"[2]; single IV dose 150 or 500 μCi, FIG. 1",transient myelodepression
same,CD3+ T lymphocytes of donor origin (mixed chimerism of lymphoid lineage),"[3]; 20×10^6 BMC, anti-CD154 mAb, 153Sm-EDTMP 150 or 500 μCi",CD3+ T lymphocytes of donor origin were also present
same,chimerism levels with versus without 153Sm administration,"[3]; 100×10^6 BMC, anti-CD154 mAb",reproducibly higher
same,CD3+ T lymphocytes of donor origin (mixed chimerism of lymphoid lineage),"[3]; 100×10^6 BMC, anti-CD154 mAb, 153Sm-EDTMP 150 or 500 μCi",CD3+ T lymphocytes of donor origin were also present
same,BM engraftment,"[3]; 100×10^6 BMC, anti-CD154 mAb, 153Sm-EDTMP 150 or 500 μCi, BMC on day 7 or 14, FIG. 2",BM engraftment in all recipient animals analyzed
same,chimerism in recipients of allogeneic BMC,"[3]; absence of co-stimulatory blockade, 20×10^6 or 100×10^6 BMC, FIGS. 4-5",transient chimerism
same,"multilineage chimerism (B cells, NK, granulocytes)","[3]; combination of BMC-Tx, 153Sm-EDTMP and anti-CD154 mAb, FIGS. 7 and 8","long-term, stable multilineage chimerism"
same,chimerism in recipients of allogeneic BMC,[3]; in the presence of costimulatory blockade (anti-CD154 mAb),long-lasting hemolymphopoietic chimerism
same,chimerism across a full allogeneic barrier,[3]; single administration prior to infusion of allogeneic bone marrow-derived cells,high levels of stable long-term chimerism
same,effectiveness of lower dose 150 μCi versus higher dose 500 μCi,[3]; with BMC-Tx and MR-1 co-stimulatory blockade,as effective as the higher dose
same,influence of 153Sm dose (150 vs 500 μCi) and timing of BMC-Tx on chimerism,[3]; with costimulatory blockade,do not grossly influence the results
